Measurements taken from patent US8598187B2, “Arylamide pyrimidone compounds” (Sanofi, priority 2007, dated 2013).
pIC50: −log10 of the molar value.

Target: GSK3β (Homo sapiens, UniProt P49841)
Assay: Inhibitory activity against GSK3β (33P-ATP phosphorylation of prephosphorylated GS1 peptide, two protocols)
Assay type: biochemical
Details: protocol 1 or 2 not specified
Experimental: Inhibitory Activity of the Medicament of the Present Invention Against GSK3β
Two different protocols can be used.
In a first protocol: 7.5 μM of prephosphorylated GS1 peptide and 10 μM ATP (containing 300,000 cpm of ^33P-ATP) were incubated in 25 mM Tris-HCl, pH 7.5, 0.6 mM DTT, 6 mM MgCl2, 0.6 mM EGTA, 0.05 mg/ml BSA buffer for 1 hour at room temperature in the presence of GSK3beta (total reaction volume: 100 microliters).
In a second protocol: 4.1 μM of prephosphorylated GS1 peptide and 42 μM ATP (containing 260,000 cpm ^33P-ATP) were incubated in 80 mM Mes-NaOH, pH 6.5, 1 mM Mg acetate, 0.5 mM EGTA, 5 mM 2-mercaptoethanol, 0.02% Tween 20, 10% glycerol buffer for 2 hours at room temperature in the presence of GSK3beta. Inhibitors were solubilized in DMSO (final solvent concentration in the reaction medium, 1%).
The reaction was stopped with 100 microliters of a solution made of 25 g polyphosphoric acid (85% P2O5), 126 ml 85% H3PO4, H2O to 500 ml and then diluted to 1:100 before use. An aliquot of the reaction mixture was then transferred to Whatman P81 cation exchange filters and rinsed with the solution described above. Incorporated ^33P radioactivity was determined by liquid scintillation spectrometry.
The phosphorylated GS-1 peptide had the following sequence: NH2-[…](P)EDEE-COOH. SEQ ID NO: 1 (Woodgett, J. R. (1989) Analytical Biochemistry 180, 237-241. […]

Sequence of GSK3β (P49841 whole entry): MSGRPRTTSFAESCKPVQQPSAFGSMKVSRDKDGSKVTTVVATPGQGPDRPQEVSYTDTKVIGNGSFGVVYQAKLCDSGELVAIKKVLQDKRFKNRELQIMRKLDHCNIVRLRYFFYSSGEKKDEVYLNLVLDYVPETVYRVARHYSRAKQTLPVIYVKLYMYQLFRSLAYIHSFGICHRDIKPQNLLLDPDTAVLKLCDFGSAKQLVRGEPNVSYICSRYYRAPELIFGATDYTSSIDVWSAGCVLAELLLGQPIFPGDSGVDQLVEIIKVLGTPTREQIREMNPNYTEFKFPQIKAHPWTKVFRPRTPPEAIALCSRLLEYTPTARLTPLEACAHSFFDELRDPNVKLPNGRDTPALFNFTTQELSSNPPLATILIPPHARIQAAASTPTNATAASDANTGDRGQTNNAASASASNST

pIC50: 7.07
Structure (SMILES): COc1cc(Cl)ccc1C(=O)NCCc1nc(-c2ccncn2)cc(=O)n1C [No. 1]
